Where a name gives a salt, the structure may show the parent alone. Read-outs that look alike come from different tables or passages of the source.
Key:
ICAM-1 = experiment: Effect on the expression of ICAM-1 in human cultured umbilical cord endothelial cells (TNF-stimulated, ELISA); assay type: cell-based; conditions: 1 ng/ml TNF, expression with TNF = 100%, without TNF = 0%, read-out: IC50 (50% inhibitory concentration of ICAM-1 expression)
Method: Effect on the Expression of ICAM-1 in Human Cultured Umbilical Cord Endothelial Cells
Examination was made on the effect on the expression of ICAM-1 which is one of adhesion molecules expressed on the surfaces of cultured endothelia cells. The endotheliall cells were suspended in an MCDB131 medium containing 10% of fetal calf serum and pipetted into a 96-well culture plate (10,000 cells/well). After culturing at 37° C. in the presence of 5% of carbon dioxide for 2 days, 1 ng/ml of a tumor necrosis factor (TNF) and a test compound were added to the 96-well culture plate. After culturing at 37° C. in the presence of 5% of carbon dioxide for 4 hours and then washing with a phosphate buffer once, 0.05% of glutaraldehyde was added thereto. Six minutes thereafter, the plate was washed twice and 1 μg/ml of a mouse antihuman ICAM-1 antibody was added thereto. After allowing to stand for 1 hour, it was washed twice and a peroxidase-labeled sheep antimouse immunoglobulin antibody was added thereto. After allowing to stand for 1 hour, it was washed twice and a color developing substrate for peroxidase (o-phenylenediamine) was added thereto. After allowing to stand at room temperature for 10 minutes, a 1 N solution of sulfuric acid was added thereto. Then the absorbance at 490 nm was measured with the use of an absorptiometer for 96-well plate. The value thus obtained was employed as an indication of the ICAM-1 expression.

[1] = tested on: Carrageenin-induced Rat Pleurisy; experiment: Effect on carrageenin-induced rat pleurisy; assay type: in vivo; conditions: total cell count in pleural exudate 5 hours after carrageenin; for inhibition in vivo at 10 mg/kg / Inhibitory ratio (%): dose 10 mg/kg orally 30 minutes before carrageenin; for Inhibitory ratio (%): 10 mg/kg
Method: Effect on Carrageenin-induced Rat Pleurisy
200 μl of a carrageenin solution (10 mg/ml in physiological saline) was intrathoracically injected into rats. Five hours thereafter, blood of the animals was collected from the abdominal aorta under etherization so as to induce death from blood loss. The exudate was taken up from the thoracic cavity and weighed with a single-pan balance. Further, the exudate was diluted with Turk's solution and the cells were counted by using a counting chamber. Next the total cell count was calculated by multiplying the cell count by the exudate volume. Thus the inhibitory ratio was calculated by taking the total cell count with the administration of carrageenin as 100% and that with the administration of physiological saline as 0%. Each test compound was suspended in a 0.5% solution of methylcellulose and orally administered at a dose of 5 ml/kg 30 minutes before the injection of carrageenin.

[2] = Homo sapiens, Endothelial cell, 4 h
[3] = Rattus norvegicus, po, 5 h, read-out: Inhibitory ratio (%)

SMILES	IC50 (ICAM-1; [2])	melting point	other results
CNS(=O)(=O)NC1CCN(Cc2ccc3c(c2)Nc2nccnc2S3)CC1 [Example 403]	340 nM		inhibition in vivo at 10 mg/kg [1, 3]: 35%
O=C(O)CC1C2CCCC1CN(Cc1ccc3c(c1)Nc1nccnc1S3)C2 (stereo not drawn) [Example 1568, (endo,anti)-[3-(10H-Pyrazino[2,3-b][1,4]benzothiazin-8-ylmethyl)-3-azabicyclo[3.3.1]non-9-yl]acetic acid]			IC50 (ICAM-1; 4 hours): 500 nM; inhibition in vivo at 30 mg/kg ([1]; Rattus norvegicus, po, 5 h, dose 30 mg/kg orally 30 minutes before carrageenin, read-out: Inhibitory ratio (%)): 50%
O=C(O)CC1C2CN(Cc3ccc4c(c3)Nc3nccnc3S4)CC1C21CCC1 (stereo not drawn) [Example 85]	6400 nM	175 to 180 °C	
O=C(O)C1(C2CCN(Cc3ccc4c(c3)Nc3nccnc3S4)CC2)CC1 [Example 698]	490 nM		inhibition in vivo at 10 mg/kg [1, 3]: 26%
CC1CCC2CN(Cc3ccc4c(c3)Nc3nccnc3S4)CC1C2CC(=O)O (stereo not drawn) [Example 91]	2900 nM		inhibition in vivo at 10 mg/kg [1, 3]: 76%
CNc1ncnc2c1ncn2Cc1ccc2c(c1)Nc1nccnc1S2 [Example 1409]	670 nM	279 to 281 °C	
O=C(O)CC1C2CCCC1CN(Cc1ccc3c(c1)Nc1nccnc1S3)C2 (stereo not drawn) [Example 18, (anti)-[3-(10H-Pyrazino[2,3-b][1,4]benzothiazin-8-ylmethyl)-3-azabicyclo[3.3.1]non-9-yl]acetic acid]			IC50 (ICAM-1; 4 hours): 3500 nM; Inhibitory ratio (%) [1]: 67%
CC1C(C)C2CN(Cc3ccc4c(c3)Nc3nccnc3S4)CC1C2CC(=O)O (stereo not drawn) [Example 23, (+)-(anti)-(6R*,7R*)-[3-(10H-Pyrazino[2,3-b][1,4]benzothiazin-8-ylmethyl)-6,7-dimethyl-3-azabicyclo[3.2.1]oct-8-yl]acetic acid]			IC50 (ICAM-1; 4 hours): 1600 nM; inhibition in vivo at 10 mg/kg [1, 3]: 52%
O=C(O)C=C1C2CCC1CN(Cc1ccc3c(c1)Nc1nccnc1S3)C2 [Example 70]	2800 nM	268 to 271 °C	
CC1C(C)C2CN(Cc3ccc4c(c3)Nc3nccnc3S4)CC1C2CC(=O)O (stereo not drawn) [Example 89]	2800 nM		inhibition in vivo at 10 mg/kg [1, 3]: 83%
CC1CC(C)C2CN(Cc3ccc4c(c3)Nc3nccnc3S4)CC1C2C(C)C(=O)O (stereo not drawn) [Example 30, (+)-(anti)-(6R*,8R*)-2-[3-(10H-pyrazino[2,3-b][1,4]benzothiazin-8-ylmethyl)-6,8-dimethyl-3-azabicyclo[3.3.1]non-9-yl]propanoic acid]			IC50 (ICAM-1; 4 hours): 500 nM; Inhibitory ratio (%) [1]: 85%
CC1(C(=O)O)C2CCCC1CN(Cc1ccc3c(c1)Nc1nccnc1S3)C2 (stereo not drawn) [Example 113]	2500 nM	264 to 265 °C	
NCc1ccc2c(c1)Nc1nccnc1S2 [Example 1241, 8-(Aminomethyl)10H-pyrazino[2,3-b][1,4]benzothiazine hydrochloride]	3600 nM		inhibition in vivo at 100 mg/kg ([1]; Rattus norvegicus, po, 5 h, dose 100 mg/kg orally 30 minutes before carrageenin, read-out: Inhibitory ratio (%)): 28%
CC1CC(C)C2CN(Cc3ccc4c(c3)Nc3nccnc3S4)CC1C2CCCC(=O)O (stereo not drawn) [Example 102]	2600 nM	98 to 105 °C	
COC1(CC(=O)O)C2CCCC1CN(Cc1ccc3c(c1)Nc1nccnc1S3)C2 (stereo not drawn) [Example 105]		225 to 228 °C	IC50 (ICAM-1; 4 hours): 5800 nM
O=C(O)C1CC2CC(C1)CN(Cc1ccc3c(c1)Nc1nccnc1S3)C2 (stereo not drawn) [Example 98]	2400 nM		inhibition in vivo at 10 mg/kg [1, 3]: 30%
O=C(O)CC1CCC2CN(Cc3ccc4c(c3)Nc3nccnc3S4)CC2C1 (stereo not drawn) [Example 717]	1150 nM		inhibition in vivo at 10 mg/kg [1, 3]: 32%
CC1CC(C)C2CN(Cc3ccc4c(c3)Nc3nccnc3S4)CC1C2C(C)C(=O)O (stereo not drawn) [Example 31, (−)-(anti)-(6R*,8R*)-2-[3-(10H-pyrazino[2,3-b][1,4]benzothiazin-8-ylmethyl)-6,8-dimethyl-3-azabicyclo[3.3.1]non-9-yl]propanoic acid]			IC50 (ICAM-1; 4 hours): 1100 nM; Inhibitory ratio (%) [1]: 38%
O=C(O)c1ccc(OCCC2C3CCCC2CN(Cc2ccc4c(c2)Nc2nccnc2S4)C3)cc1 (stereo not drawn) [Example 121]	7400 nM		inhibition in vivo at 10 mg/kg [1, 3]: 70%
CC(CCC1C2CN(Cc3ccc4c(c3)Nc3nccnc3S4)CC1C(C)CC2C)C(=O)O (stereo not drawn) [Example 100]	3800 nM	110 to 115 °C	
O=C(O)CC12CCCC(CN(Cc3ccc4c(c3)Nc3nccnc3S4)C1)C2 (stereo not drawn) [Example 104]	2800 nM	215 to 217 °C	
CC1CC(C)C2CN(Cc3ccc4c(c3)Nc3nccnc3S4)CC1C2CC(=O)O (stereo not drawn) [Example 79]			inhibition in vivo at 10 mg/kg [1, 3]: 44%
CN(C)S(=O)(=O)NC1CCN(Cc2ccc3c(c2)Nc2nccnc2S3)CC1 [Example 460]	320 nM		inhibition in vivo at 10 mg/kg [1, 3]: 57%

SMILES	IC50 (ICAM-1; [2])	melting point	other results
O=C(O)C=C1CC2CCC(C1)N2Cc1ccc2c(c1)Nc1nccnc1S2 [Example 118]	1600 nM	206 to 208 °C	
COC1(CC(=O)O)C2CCCC1CN(Cc1ccc3c(c1)Nc1nccnc1S3)C2 (stereo not drawn) [Example 103]	6600 nM	217 to 219 °C	
O=C(O)C12CCCC(CN(Cc3ccc4c(c3)Nc3nccnc3S4)C1)C2 (stereo not drawn) [Example 90]	2800 nM	186 to 188 °C	
O=C(O)CC1C2CCCCC1CN(Cc1ccc3c(c1)Nc1nccnc1S3)C2 (stereo not drawn) [Example 80]	4100 nM	217 to 218 °C	
O=C(O)C1C2CCCC1CN(Cc1ccc3c(c1)Nc1nccnc1S3)C2 (stereo not drawn) [Example 74]	1900 nM	272 to 275 °C	
CC(C(=O)O)C1C2CCCC1CN(Cc1ccc3c(c1)Nc1nccnc1S3)C2 (stereo not drawn) [Example 82]	3400 nM		
O=C(O)CC1C2CC(c3ccccc3)CC1CN(Cc1ccc3c(c1)Nc1nccnc1S3)C2 (stereo not drawn) [Example 87]	2900 nM	128 to 131 °C	
c1cnc2c(n1)Nc1cc(CN3CCCCCCC3)ccc1S2		133 to 135 °C	
Cl.O=C(O)Cc1ccc(NCc2ccc3c(c2)Nc2nccnc2S3)cc1		252 to 256 °C	
N#CN=CN1CCN(Cc2ccc3c(c2)Nc2nccnc2S3)CC1		238 to 241 °C (dec.)	
c1cc2ccnc-2n(Cc2ccc3c(c2)Nc2nccnc2S3)c1		210 to 214 °C	
c1ccc(COCc2ccc3c(c2)Nc2nccnc2S3)cc1		118 to 120 °C	
COC(C)(C)CC/C(=C\c1ncn(Cc2ccc3c(c2)Nc2nccnc2S3)c1C)C(=O)O		202 to 204 °C	
O=C(O)C1=CCCN(Cc2ccc3c(c2)Nc2nccnc2S3)C1		178 to 180 °C	
CC/C(=C\c1ncn(Cc2ccc3c(c2)Nc2nccnc2S3)c1C)C(=O)O		> 288 °C (dec.)	
CC(C)(C)C1CC2CN(Cc3ccc4c(c3)Nc3nccnc3S4)CC(C1)C2CC(=O)O (stereo not drawn) [Example 77]	2800 nM	138 to 140 °C	
COCOc1ccc2c(c1)Nc1nccnc1N2C		197 to 198 °C	
O=C(O)CC1CCC2(CC1)CN(Cc1ccc3c(c1)Nc1nccnc1S3)C2		145 °C (dec.)	
OCCCCN1c2ccccc2Nc2nccnc21		138 to 139 °C	
O=C(O)Cc1ccc(C2(O)CCN(Cc3ccc4c(c3)Nc3nccnc3S4)CC2)cc1		192 °C (dec.)	
c1cnc2c(n1)Nc1cc(Cn3cnnn3)ccc1S2		210 to 212 °C	
c1ccc(Cc2nccn2Cc2ccc3c(c2)Nc2nccnc2S3)nc1		216 to 219 °C	
O=C(O)CSC1CCN(Cc2ccc3c(c2)Nc2nccnc2S3)CC1		148 to 152 °C	
